Data reported in PMC10509173, “Deep learning driven de novo drug design based on gastric proton pump structures” (Communications Biology, 2023).
Values joined by “and” are separate entries in the source; they are usually repeats but may differ in a detail not shown here. Identical values can stand only once. Like-named read-outs stand apart in the source and are kept apart here.

Assays:
[1] = tested on: H+,K+-ATPase; parameters: method as in PMID 35604136, PMID 28747707; conditions: cited from earlier work
[2] = target: H+,K+-ATPase; parameters: method as in PMID 2837231; conditions: cited from earlier work
[3] = target: T1, H+,K+-ATPase (Sus scrofa, UniProt P19156); assay: Dose-dependent inhibition of H+,K+-ATPase activity, membrane fractions; conditions: for H+,K+-ATPase activity, raw data of dose-dependent inhibition: single replicate values
[4] = target: T1, H+,K+-ATPase; assay: K+-dependent ATPase assay, double reciprocal plot and Ki estimation; assay type: biochemical, pig; parameters: H^+,K^+-ATPase-enriched membrane fractions were purified from pig stomach; from tissue; host or cells: pig stomach (gastric membrane fractions); reciprocal K+-stimulated ATPase activity, Lineweaver-Burk raw data: unit not given here; conditions: for reciprocal K+-stimulated ATPase activity, Lineweaver-Burk raw data: replicate values
Source text: Data measured from 96-well plate contained triplicates of four different sets of K^+-dependent ATPase assays in the absence or presence of three different concentrations of synthesized compounds. Data were corrected for background values in the absence of K^+ at each compound concentration, and plot them against the double reciprocal axes in Supplementary Fig. 5. Data were also fitted by using simultaneous nonlinear regression as described previously to estimate their Ki values.

T1 sequence (P19156 2-1034 limits assumed): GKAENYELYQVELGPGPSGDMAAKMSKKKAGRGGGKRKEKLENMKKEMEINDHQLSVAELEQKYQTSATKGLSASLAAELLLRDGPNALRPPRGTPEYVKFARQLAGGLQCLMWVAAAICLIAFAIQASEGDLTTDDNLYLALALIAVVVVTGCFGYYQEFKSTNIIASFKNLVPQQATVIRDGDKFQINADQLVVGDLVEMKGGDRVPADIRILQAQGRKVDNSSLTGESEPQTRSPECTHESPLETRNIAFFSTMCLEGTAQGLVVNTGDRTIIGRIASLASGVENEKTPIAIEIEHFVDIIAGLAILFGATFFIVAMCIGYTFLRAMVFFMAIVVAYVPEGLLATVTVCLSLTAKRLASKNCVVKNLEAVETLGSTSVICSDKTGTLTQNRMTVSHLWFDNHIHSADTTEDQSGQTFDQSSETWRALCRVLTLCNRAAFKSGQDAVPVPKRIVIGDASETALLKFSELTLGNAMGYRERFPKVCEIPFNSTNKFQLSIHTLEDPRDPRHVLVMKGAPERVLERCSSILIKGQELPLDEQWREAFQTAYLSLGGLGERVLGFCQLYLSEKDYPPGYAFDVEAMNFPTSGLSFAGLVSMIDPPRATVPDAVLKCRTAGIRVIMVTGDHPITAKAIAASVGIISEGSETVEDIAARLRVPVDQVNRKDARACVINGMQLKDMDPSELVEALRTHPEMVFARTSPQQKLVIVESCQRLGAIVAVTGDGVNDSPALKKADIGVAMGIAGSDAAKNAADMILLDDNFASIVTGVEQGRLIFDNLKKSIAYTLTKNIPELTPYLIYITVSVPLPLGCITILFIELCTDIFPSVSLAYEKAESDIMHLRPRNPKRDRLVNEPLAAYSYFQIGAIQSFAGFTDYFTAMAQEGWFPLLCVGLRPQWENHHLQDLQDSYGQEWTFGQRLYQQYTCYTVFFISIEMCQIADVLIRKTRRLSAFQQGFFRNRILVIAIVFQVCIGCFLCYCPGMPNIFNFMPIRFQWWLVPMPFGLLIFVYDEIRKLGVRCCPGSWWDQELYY
T1 sequence (P18434 whole entry partner): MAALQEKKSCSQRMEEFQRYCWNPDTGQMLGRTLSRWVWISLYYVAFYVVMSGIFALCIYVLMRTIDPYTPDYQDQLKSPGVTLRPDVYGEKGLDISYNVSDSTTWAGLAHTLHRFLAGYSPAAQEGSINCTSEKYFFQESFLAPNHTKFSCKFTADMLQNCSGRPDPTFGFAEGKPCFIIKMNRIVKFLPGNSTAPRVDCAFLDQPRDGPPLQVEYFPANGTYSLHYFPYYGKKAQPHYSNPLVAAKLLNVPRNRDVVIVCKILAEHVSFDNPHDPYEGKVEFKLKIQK

**Q.** For `COCCO[C@@H]1c2ccn3c(C)c(C)nc3c2N[C@H](c2ccccc2)[C@H]1O` [soraprazan], which “times higher apparent affinity than SCH28080” value [1] is on record?
**A.** > 7 times

**Q.** For `Cc1nc2c(OCc3ccccc3)cccn2c1CC#N` [SCH28080], which Ki ([2]; pH 6.11) is on record?
**A.** 20 nM

**Q.** And the Ki ([2]; pH 7.35)?
**A.** 66 nM

**Q.** Which IC50 [3] does the source give for `CNCc1ccc(OCc2ccccc2OCc2ccccc2)cc1` [DQ-06] here?
**A.** 700 ± 40 nM

**Q.** What about the “H+,K+-ATPase activity, raw data of dose-dependent inhibition” value ([3]; [PCAB] -3.30103 (log, unit not given)) of the same compound?
**A.** 0.01 and -0.01 and 0.22 and -0.22 and -0.74 and -0.4

**Q.** What about the “H+,K+-ATPase activity, raw data of dose-dependent inhibition” value ([3]; [PCAB] -3.52288 (log, unit not given)) of the same compound?
**A.** 1.74 and 1.71 and 2.79 and 2.38 and 1.76 and 2.41

**Q.** What about the “H+,K+-ATPase activity, raw data of dose-dependent inhibition” value ([3]; [PCAB] -4 (log, unit not given)) of the same compound?
**A.** 5.02 and 5.03 and 3.19 and 3.1 and 2.85 and 2.51

**Q.** What about the “H+,K+-ATPase activity, raw data of dose-dependent inhibition” value ([3]; [PCAB] -4.30103 (log, unit not given)) of the same compound?
**A.** 5.51 and 5.6 (2×) and 5.65 and 5.75 and 5.83

**Q.** And the “H+,K+-ATPase activity, raw data of dose-dependent inhibition” value ([3]; [PCAB] -4.52288 (log, unit not given))?
**A.** 5.58 and 6.16 and 6.26 and 6.39 and 7.23 and 7.48

**Q.** And the “H+,K+-ATPase activity, raw data of dose-dependent inhibition” value ([3]; [PCAB] -5 (log, unit not given))?
**A.** 9.37 and 9.6 and 11.28 and 10.91 and 10.15 and 11.11

**Q.** And the “H+,K+-ATPase activity, raw data of dose-dependent inhibition” value ([3]; [PCAB] -5.52288 (log, unit not given))?
**A.** 20.15 and 21.1 and 19.71 and 21.04 and 20.73 and 20.63

**Q.** What about the “H+,K+-ATPase activity, raw data of dose-dependent inhibition” value ([3]; [PCAB] -6 (log, unit not given)) of the same compound?
**A.** 39.09 and 39.39 and 38.28 and 36.79 and 38.33 and 39.14

**Q.** And the “H+,K+-ATPase activity, raw data of dose-dependent inhibition” value ([3]; [PCAB] -6.30103 (log, unit not given))?
**A.** 57.6 and 58.17 and 57.79 and 57.15 and 58.12 and 57.53

**Q.** What about the “H+,K+-ATPase activity, raw data of dose-dependent inhibition” value ([3]; [PCAB] -7 (log, unit not given)) of the same compound?
**A.** 90.69 and 91.88 and 87.97 and 84.74 and 90.82 and 88.26

**Q.** And the “H+,K+-ATPase activity, raw data of dose-dependent inhibition” value ([3]; [PCAB] -8 (log, unit not given))?
**A.** 101.14 and 100.91 and 95.09 and 94.94 and 96.97 and 96.94

**Q.** And the “H+,K+-ATPase activity, raw data of dose-dependent inhibition” value ([3]; [PCAB] -11 (log, unit not given; possibly placeholder for no compound))?
**A.** 102.84 and 103.26 and 99.81 and 97.12 and 97.38 and 101.76

**Q.** What about the Ki ([4]; K+-competitive inhibition, read-out: Ki) of the same compound?
**A.** 93.8 nM

**Q.** What about the “reciprocal K+-stimulated ATPase activity, Lineweaver-Burk raw data” value (from here on “reciprocal K+-stimulated ATPase activity”) ([4]; compound concentration 50, 1/KCl 0.05 (units not given)) of the same compound?
**A.** 0.0059 and 0.0057 and 0.006

**Q.** What about the “reciprocal K+-stimulated ATPase activity” value ([4]; compound concentration 50, 1/KCl 0.1 (units not given)) of the same compound?
**A.** 0.0075 and 0.0077 and 0.0078

**Q.** And the “reciprocal K+-stimulated ATPase activity” value ([4]; compound concentration 50, 1/KCl 0.125 (units not given))?
**A.** 0.0067 and 0.0066 and 0.007

**Q.** What about the “reciprocal K+-stimulated ATPase activity” value ([4]; compound concentration 50, 1/KCl 0.2 (units not given)) of the same compound?
**A.** 0.0088 and 0.0086 and 0.0089

**Q.** What about the “reciprocal K+-stimulated ATPase activity” value ([4]; compound concentration 50, 1/KCl 0.5 (units not given)) of the same compound?
**A.** 0.0111 and 0.011 and 0.0112

**Q.** And the “reciprocal K+-stimulated ATPase activity” value ([4]; compound concentration 50, 1/KCl 1 (units not given))?
**A.** 0.0282 and 0.0275 and 0.0291

**Q.** And the “reciprocal K+-stimulated ATPase activity” value ([4]; compound concentration 50, 1/KCl 2 (units not given))?
**A.** 0.035 and 0.034 and 0.0286

**Q.** What about the “reciprocal K+-stimulated ATPase activity” value ([4]; compound concentration 100, 1/KCl 0.05 (units not given)) of the same compound?
**A.** 0.0066 and 0.0063 and 0.0065

**Q.** What about the “reciprocal K+-stimulated ATPase activity” value ([4]; compound concentration 100, 1/KCl 0.1 (units not given)) of the same compound?
**A.** 0.0087 and 0.0094 and 0.0098

**Q.** And the “reciprocal K+-stimulated ATPase activity” value ([4]; compound concentration 100, 1/KCl 0.125 (units not given))?
**A.** 0.0086 and 0.0083 and 0.0082

**Q.** And the “reciprocal K+-stimulated ATPase activity” value ([4]; compound concentration 100, 1/KCl 0.2 (units not given))?
**A.** 0.011 and 0.0106 and 0.0113

**Q.** And the “reciprocal K+-stimulated ATPase activity” value ([4]; compound concentration 100, 1/KCl 0.5 (units not given))?
**A.** 0.0167 and 0.0156 and 0.0168

**Q.** What about the “reciprocal K+-stimulated ATPase activity” value ([4]; compound concentration 100, 1/KCl 1 (units not given)) of the same compound?
**A.** 0.0412 and 0.0415 and 0.043

**Q.** And the “reciprocal K+-stimulated ATPase activity” value ([4]; compound concentration 100, 1/KCl 2 (units not given))?
**A.** 0.056 and 0.0496 and 0.0604

**Q.** What about the “reciprocal K+-stimulated ATPase activity” value ([4]; compound concentration 400, 1/KCl 0.05 (units not given)) of the same compound?
**A.** 0.0084 and 0.0076 and 0.008

**Q.** And the “reciprocal K+-stimulated ATPase activity” value ([4]; compound concentration 400, 1/KCl 0.1 (units not given))?
**A.** 0.0109 and 0.0112 and 0.011

**Q.** And the “reciprocal K+-stimulated ATPase activity” value ([4]; compound concentration 400, 1/KCl 0.125 (units not given))?
**A.** 0.0123 and 0.011 and 0.0111

**Q.** And the “reciprocal K+-stimulated ATPase activity” value ([4]; compound concentration 400, 1/KCl 0.2 (units not given))?
**A.** 0.0153 and 0.0154 and 0.0157

**Q.** What about the “reciprocal K+-stimulated ATPase activity” value ([4]; compound concentration 400, 1/KCl 0.5 (units not given)) of the same compound?
**A.** 0.0261 and 0.0253 and 0.0282

**Q.** What about the “reciprocal K+-stimulated ATPase activity” value ([4]; compound concentration 400, 1/KCl 1 (units not given)) of the same compound?
**A.** 0.069 and 0.0649 and 0.0653

**Q.** And the “reciprocal K+-stimulated ATPase activity” value ([4]; compound concentration 400, 1/KCl 2 (units not given))?
**A.** 0.097 and 0.0973 and 0.106

**Q.** And the inhibition mode ([4]; double reciprocal plot, versus K+)?
**A.** purely competitive with K^+

**Q.** With `Cc1nc2c3c(ccn2c1C)[C@@H](O)[C@H](O)[C@@H](c1ccccc1)N3` [BYK99] as the compound, how does the “times higher apparent affinity than SCH28080” value [1] read?
**A.** more than 25 times
